Data from US4616007A, “Heterocyclthio compounds, process for their manufacture, pharmaceutical preparations that contain these compounds, and the use of the latter” (Ciba-Geigy Corporation, priority 1982, dated 1986).

Key:
[1] = test system: Pseudomonas aeruginosa ATCC 12055; test: in vitro antibacterial activity (MIC); type: cell-based; settings: ATCC12055
Proteus rettgeri 856 = test: in vitro antibacterial activity (MIC); type: cell-based; settings: Providencia rettgeri
Escherichia coli 205 = test: in vitro antibacterial activity (MIC); type: cell-based
[2] = test system: Enterobacter cloacae ATCC 13047; test: in vitro antibacterial activity (MIC); type: cell-based; settings: ATCC13047
Escherichia coli UB 1005 = test: in vitro antibacterial activity (MIC); type: cell-based; settings: UB1005
Source text: (§1) The compounds of the formula I have valuable pharmacological properties, or can be used as intermediates for the manufacture of such compounds having valuable pharmacological properties. Compounds of the formula I in which R1 represents hydrogen or methyl, R2 represents hydroxy, R3 represents carboxy, or an esterified carboxy group that can be cleaved under physiological conditions, and R4 has the meaning given under formula I, and pharmacologically acceptable salts of such compounds having salt-forming groups have anti-bacterial activity. For example, they are effective in vitro against gram-positive and gram-negative cocci, for example Staphylococcus aureus, Streptococcus pyogenes, Streptococcus pneumoniae, and Streptococcus faecalis, and against gram-negative rod-shaped bacilli, such as Enterobacteriaceae, Haemophilus influenzae and Pseudomonas aeruginosa, and anaerobes, for example Bacteroides sp., in minimum concentrations of from approximately 0.02 to approximately 64 μg/ml. In vivo, in the case of systemic infection of mice, for example by Staphylococcus aureus or Streptococcus pyogenes, on subcutaneous or oral administration of compounds of the invention ED50 values of from approximately 8.5 to approximately 100 mg/kg result.
(§2) For example, in vitro, sodium (5R,6S)-2-[3-(1-methyltetrazol-5-ylthio)-propyl]-6-hydroxymethyl-2-penem-3-carboxylate (compound 1) and sodium (5R,6S)-2-[3-(1-dimethylaminoethyltetrazol-5-ylthio)-propyl]-6-hydroxymethyl-2-penem-3-carboxylate (compound 2) and sodium (5R,6S)-2-[3-(1-methyltetrazol-5-ylthio)-ethyl-6-hydroxymethyl-2-penem-3-carboxylate (compound 3), have the following activity: […]

Escherichia coli DC 2 = test: in vitro antibacterial activity (MIC); type: cell-based; settings: DC2
Source text: as §1, §2

[3] = test system: Streptococcus pyogenes Aronson; test: in vitro antibacterial activity (MIC); type: cell-based
[4] = test system: Klebsiella pneumoniae 327; test: in vitro antibacterial activity (MIC); type: cell-based
Proteus mirabilis 1219 = test: in vitro antibacterial activity (MIC); type: cell-based
[5] = test system: Enterobacter cloacae P 99; test: in vitro antibacterial activity (MIC); type: cell-based; settings: P99
[6] = test system: Streptococcus faecalis D 3; test: in vitro antibacterial activity (MIC); type: cell-based; settings: Enterococcus faecalis, D3
[7] = test system: Clostridium perfringens 194; test: microbe, parasite or virus in culture; type: cell-based
Escherichia coli 16 = test: in vitro antibacterial activity (MIC); type: cell-based
[8] = test system: Staphylococcus aureus 2999i+p+; test: in vitro antibacterial activity (MIC); type: cell-based
[9] = test system: Bacteroides fragilis L 01; test: in vitro antibacterial activity (MIC); type: cell-based; settings: L01
Proteus mirabilis 774 = test: in vitro antibacterial activity (MIC); type: cell-based
[10] = test system: Streptococcus pneumoniae III/84; test: in vitro antibacterial activity (MIC); type: cell-based
Serratia marcescens 344 = test: in vitro antibacterial activity (MIC); type: cell-based
Proteus morganii 2359 = test: in vitro antibacterial activity (MIC); type: cell-based; settings: Morganella morganii
Proteus morganii 1518 = test: in vitro antibacterial activity (MIC); type: cell-based; settings: Morganella morganii
[11] = test system: Staphylococcus aureus 10 B; test: in vivo systemic infection of mice
Source text: as §1
(§3) In vivo in the systemic infection of mice, the following activity is found: […]

[12] = test system: Streptococcus pyogenes Aronson; test: in vivo systemic infection of mice
Source text: as §1, §3

Escherichia coli 2018 [13] = test: in vivo systemic infection of mice
Source text: as §1, §3

[14] = test system: Pseudomonas aeruginosa K 799/61; test: in vitro antibacterial activity (MIC); type: cell-based; settings: K799/61
[15] = test system: Escherichia coli 205 R+TEM; test: in vitro antibacterial activity (MIC); type: cell-based
[16] = test system: Haemophilus influenzae NCTC 4560; test: in vitro antibacterial activity (MIC); type: cell-based; settings: NCTC4560
[17] = test system: Staphylococcus aureus 10 B; test: in vitro antibacterial activity (MIC); type: cell-based
[18] = test system: Staphylococcus aureus Wood 46; test: in vitro antibacterial activity (MIC); type: cell-based; settings: WOOD46
Source text: as §1, §2

Escherichia coli B-1385 = test: in vitro antibacterial activity (MIC); type: cell-based; settings: B1385
Source text: as §1, §2

[19] = test system: Staphylococcus aureus A 124; test: in vitro antibacterial activity (MIC); type: cell-based; settings: A124
Source text: as §1, §2

Escherichia coli 2018 [20] = test: in vitro antibacterial activity (MIC); type: cell-based
Source text: as §1, §2

[21] = test system: Neisseria gonorrhoeae 1317-4; test: in vitro antibacterial activity (MIC); type: cell-based; settings: 13174
[22] = test system: Neisseria meningitidis 1316; test: in vitro antibacterial activity (MIC); type: cell-based

Row | Compound | MIC [1] [µg/mL] | MIC (Proteus rettgeri 856) [µg/mL] | MIC (Escherichia coli 205) [µg/mL] | MIC [2] [µg/mL] | MIC (Escherichia coli UB 1005) [µg/mL] | MIC (Escherichia coli DC 2) [µg/mL] | MIC [3] [µg/mL] | MIC [4] [µg/mL] | MIC (Proteus mirabilis 1219) [µg/mL] | MIC [5] [µg/mL] | MIC [6] [µg/mL] | MIC [7] [µg/mL] | MIC (Escherichia coli 16) [µg/mL] | MIC [8] [µg/mL] | MIC [9] [µg/mL] | MIC (Proteus mirabilis 774) [µg/mL] | MIC [10] [µg/mL] | MIC (Serratia marcescens 344) [µg/mL] | MIC (Proteus morganii 2359) [µg/mL] | MIC (Proteus morganii 1518) [µg/mL] | also measured
1 | Cn1nnnc1SCCCC1=C(C(=O)[O-])N2C(=O)[C@H](CO)[C@H]2S1.[Na+] [Compound 1, sodium (5R,6S)-2-[3-(1-methyltetrazol-5-ylthio)-propyl]-6-hydroxymethyl-2-penem-3-carboxylate] | > 128 | 4 | 2 | 64 | 4 | 2 | 0.1 | 4 | 8 | 32 | 64 | 0.02 | 16 | 0.05 | 0.5 | 2 | 0.02 | 16 | 2 | 4 | ED50 ([11]; po): 90 mg/kg; ED50 ([11]; sc): 60 mg/kg; ED50 ([12]; po): ~30 mg/kg; ED50 ([12]; sc): 8.5 mg/kg; ED50 (Escherichia coli 2018 [13]; Escherichia coli, 2018, po, p.o.): 90 mg/kg; ED50 (Escherichia coli 2018 [13]; Escherichia coli, 2018, sc, s.c.): 30 to 100 mg/kg; MIC [14]: 2 µg/mL; MIC [15]: 4 µg/mL; MIC [16]: 0.5 µg/mL; MIC [17]: 0.05 µg/mL
2 | Cn1nnnc1SCCC1=C(C(=O)[O-])N2C(=O)[C@H](CO)[C@H]2S1.[Na+] [Compound 3, Sodium (5R,6S)-2-[2-(1-Methyltetrazol-5-ylthio)-ethyl]-6-hydroxymethyl-2-penem-3-carboxylate] | > 128 | 4 | 1 | 32 | 2 | 2 | 0.1 | 2 | 4 | 16 | 32 | 0.1 | 4 | 0.05 | 0.2 | 2 | 0.02 | 16 | 2 | 4 | MIC [18]: 0.05 µg/mL; MIC (Escherichia coli B-1385): 2 µg/mL; MIC [19]: 0.5 µg/mL; MIC (Escherichia coli 2018 [20]): 0.5 µg/mL; MIC [21]: 0.01 µg/mL; ED50 ([12]; po): 30 mg/kg; ED50 ([12]; sc): 12 mg/kg; MIC [14]: 1 µg/mL; MIC [15]: 2 µg/mL; MIC [22]: 0.02 µg/mL; MIC [16]: 2 µg/mL; MIC [17]: 0.05 µg/mL
